Measurements: patent publication US20230295162A1 (EÖTVÖS LORÁND TUDOMÁNYEGYETEM, priority 2020, published 2023)

Legend:
[1] = tested on: PANC-1 (human pancreatic carcinoma) cells; assay: Impedance-based viability assay (xCELLigence SP), long treatment; format: cell-based; details: 72 h, read-out: cytotoxicity expressed in IC50, PANC-1
Text: (Gibco®/Invitrogen Corporation, New York, NY, USA).
Data obtained from each experiment represent mathematical averages.

[2] = tested on: A549 lung carcinoma cell line; assay: CellTiter-Glo IC50 (Example 19); format: cell-based; details: Homo sapiens, 72 h
Method in brief: (§1)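 Luminescent ATP-based viability readout (CellTiter-Glo) after compound exposure of cells plated at 1000 per well. IC50 values derive from dose-response curves of viability relative to untreated controls, fitted by non-linear regression with variable slope.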

[3] = tested on: BxPC3 pancreatic cancer cell line; assay: CellTiter-Glo IC50 (Example 19); format: cell-based; details: Homo sapiens, BXPC-3, 72 h
Method in brief: as §1

[4] = tested on: H1993 lung carcinoma cell line; assay: CellTiter-Glo IC50 (Example 19); format: cell-based; details: Homo sapiens, NCI-H1993, 72 h
Method in brief: as §1

[5] = tested on: H520 lung carcinoma cell line; assay: CellTiter-Glo IC50 (Example 19); format: cell-based; details: Homo sapiens, NCI-H520, 72 h
Method in brief: as §1

[6] = tested on: HCC827 lung carcinoma cell line; assay: CellTiter-Glo IC50 (Example 19); format: cell-based; details: Homo sapiens, 72 h
Method in brief: as §1

[7] = tested on: LNCap human prostate cancer cell line; assay: CellTiter-Glo IC50 (Example 19); format: cell-based; details: 72 h
Method in brief: as §1

[8] = tested on: MiaPaCa2 pancreatic cancer cell line; assay: CellTiter-Glo IC50 (Example 19); format: cell-based; details: Homo sapiens, MIA PaCa-2, 72 h
Method in brief: as §1

[9] = tested on: PC3 human prostate cancer cell line; assay: CellTiter-Glo IC50 (Example 19); format: cell-based; details: 72 h
Method in brief: as §1

[10] = tested on: MDA-MB-231 breast cancer cell line; assay: CellTiter-Glo IC50 (Table 3); format: cell-based; details: Homo sapiens
Protocol: (§2) Some representative imipridones and ONC212 as reference were further tested on the following human malignant cell lines: PC3 and LNCap (prostate carcinoma); BxPC3, MiaPaCa2 and Panc1 (pancreatic cancer); A549, HCC827, H1993 and H520 (lung carcinoma); MDA-MB-453 and MDA-MB-231 (breast cancer) (see Table 2 and FIGS. 1-11).
(§3) Cell lines were maintained according to the instructions provided by ATCC (https://www.lgcstandards-atcc.org/) in a 5% CO2 humidified incubator maintained at 37° C. temperature. Effects of compounds on cell viability were measured via CellTiter-Glo® luminescent cell viability assay (Promega, Madison, WI, USA) Cells were plated at 1000 cells/well onto a flat-bottomed, white 96 well plate (BRANDplates, cat. no.: 781965). […] After the treatment, medium was removed and CellTiter-Glo® reagent was added. The luminescence signal was recorded using a microplate reader (BioTek Synergy 2 Multi-Mode Reader, BioTek, Winooski, VT, USA).
(§4) Cell viability data (% of untreated control cells) was evaluated with Microsoft Excel. Dose-response curves (using a non-linear regression model, log (inhibitor) vs response, variable slope) were generated and IC50 values were determined using Graph Pad Prism 5.02 software (GraphPad Software, San Diego, CA, USA).

[11] = tested on: MDA-MB-453 breast cancer cell line; assay: CellTiter-Glo IC50 (Table 3); format: cell-based; details: Homo sapiens
Protocol: as §2, §3, §4

[12] = tested on: DU 145 (prostate, carcinoma) cells; assay: Cell viability assay, CellTiter-Glo (Example 21); format: cell-based, human; details: 72 h
Method in brief: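 DU 145 prostate carcinoma cells were plated at 1000 cells/well in white flat-bottom 96 well plates and exposed to compound. Viability was then determined by CellTiter-Glo® luminescence on a BioTek Synergy 2 reader, and dose-response curves were fitted in GraphPad Prism 8.4.2 with a four-parameter variable-slope non-linear regression.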

[13] = tested on: MDA-MB-231 (breast, adenocarcinoma) cells; assay: Cell viability assay, CellTiter-Glo (Example 21); format: cell-based, human; details: 72 h treatment
Method in brief: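 Viability of MDA-MB-231 cells was quantified by luminescence using Promega's CellTiter-Glo® kit per manufacturer instructions. Cells, plated at a size- and growth-optimized density of 1500 cells/well in white flat-bottom 96 well plates, were treated and then read on a BioTek Synergy 2 reader; dose-response curves used four-parameter variable-slope non-linear regression in GraphPad Prism 8.4.2.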

[14] = tested on: MIA PaCa-2 (pancreas, carcinoma) cells; assay: Cell viability assay, CellTiter-Glo (Example 21); format: cell-based, human; details: 72 h treatment
Method in brief: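 Cell viability of MIA PaCa-2 cells was assessed by CellTiter-Glo® luminescence (Promega, Madison, WI, USA). Cells were plated at 1000 cells/well, a density chosen for their size and growth rate, in white flat-bottomed 96 well plates. After treatment, the signal was recorded on a BioTek microplate reader, and dose-response curves were fitted in GraphPad Prism 8.4.2 with a four-parameter variable-slope non-linear regression.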

[15] = tested on: SCC-25 (tongue, squamous cell carcinoma) cells; assay: Cell viability assay, CellTiter-Glo (Example 21); format: cell-based, human; details: 72 h treatment
Method in brief: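 Cell viability of SCC-25 cells was assessed by CellTiter-Glo luminescence after compound exposure. Cells were plated at 1000 cells/well, a density chosen for their size and growth rate, on white flat-bottom 96 well plates. Signal was recorded on a microplate reader, and dose-response curves were fitted in GraphPad Prism by four-parameter variable-slope non-linear regression.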

[16] = tested on: COLO-205 (human colorectal adenocarcinoma) cells; assay: Colorimetric alamarBlue assay, long treatment; details: COLO 205, 72 h, read-out: cytotoxicity expressed in IC50, COLO-205
[17] = tested on: A2058 (human metastatic melanoma) cells; assay: Colorimetric alamarBlue assay, long treatment; details: Homo sapiens, A2058, 72 h, read-out: cytotoxicity expressed in IC50, A-2058

Structure (SMILES)	IC50 [1] [µM]	DU 145 cell viability ([12]; 3.7 nM)	DU 145 cell viability ([12]; 11.1 nM)	DU 145 cell viability ([12]; 100 nM)	DU 145 cell viability ([12]; 300 nM)	MDA-MB-231 (breast, adenocarcinoma) cell viability (% of control) ([13]; 3.7 nM)	MDA-MB-231 (breast, adenocarcinoma) cell viability (% of control) ([13]; 11.1 nM)	MDA-MB-231 (breast, adenocarcinoma) cell viability (% of control) ([13]; 100 nM)	MDA-MB-231 (breast, adenocarcinoma) cell viability (% of control) ([13]; 300 nM)	MIA PaCa-2 (pancreas, carcinoma) cell viability (% of control) ([14]; 3.7 nM)	MIA PaCa-2 (pancreas, carcinoma) cell viability (% of control) ([14]; 11.1 nM)	MIA PaCa-2 (pancreas, carcinoma) cell viability (% of control) ([14]; 100 nM)	MIA PaCa-2 (pancreas, carcinoma) cell viability (% of control) ([14]; 300 nM)	SCC-25 (tongue, squamous cell carcinoma) cell viability (% of control) ([15]; 3.7 nM)	SCC-25 (tongue, squamous cell carcinoma) cell viability (% of control) ([15]; 11.1 nM)	SCC-25 (tongue, squamous cell carcinoma) cell viability (% of control) ([15]; 100 nM)	SCC-25 (tongue, squamous cell carcinoma) cell viability (% of control) ([15]; 300 nM)	IC50 [16] [µM]	IC50 [17] [µM]	also measured
O=C1C2=C(CCN(Cc3ccccc3)C2)N2CCN=C2N1Cc1ccc(C(F)(F)F)cc1 [I/1, reference compound]	0.048	99.0 ± 4.6 % of control	101.3 ± 4.3 % of control	17.5 ± 4.2 % of control	8.1 ± 2.2 % of control	101.0 ± 4.4 % of control	97.9 ± 1.1 % of control	87.9 ± 4.4 % of control	56.8 ± 2.1 % of control	105.7 ± 8.5 % of control	108.5 ± 11.2 % of control	43.4 ± 13.5 % of control	17.3 ± 8.8 % of control	108.5 ± 8.6 % of control	105.5 ± 12.7 % of control	76.7 ± 19.9 % of control	37.6 ± 4.3 % of control	0.25	> 10	IC50 [2]: 0.06 µM; IC50 [3]: 0.11 µM; IC50 [4]: 0.09 µM; IC50 [5]: 0.073 µM; IC50 [6]: 0.105 µM; IC50 [7]: 0.052 µM; IC50 [8]: 0.076 µM; IC50 [9]: 0.08 µM; IC50 [10]: 0.024 µM; IC50 [11]: 0.016 µM
O=C1C2=C(CCN(Cc3cccc(F)c3)C2)N2CCN=C2N1Cc1ccc(C(F)(F)F)cc1 [I/3, reference compound]	0.044	102.0 ± 3.5 % of control	95.9 ± 5.1 % of control	7.1 ± 1.6 % of control	7.2 ± 1.2 % of control	101.4 ± 1.4 % of control	99.8 ± 1.8 % of control	56.5 ± 3.4 % of control	53.7 ± 3.1 % of control	107.1 ± 16.4 % of control	105.2 ± 3.4 % of control	17.5 ± 7.9 % of control	17.2 ± 7.5 % of control	101.0 ± 4.9 % of control	95.1 ± 5.1 % of control	34.9 ± 3.9 % of control	33.1 ± 1.7 % of control	> 10	> 10	–
O=C1C2=C(CCN(Cc3cc(F)cc(F)c3)C2)N2CCN=C2N1Cc1ccc(Cl)cc1 [I/124, 4-(4-Chlorobenzyl)-7-(3,5-difluorobenzyl)-2,4,6,7,8,9-hexahydroimidazo[1,2-a]pyrido[3,4-e]pyrimidin-5(1H)-one]	–	10.0 ± 1.4 % of control	7.0 ± 1.1 % of control	8.0 ± 1.0 % of control	7.7 ± 1.8 % of control	82.4 ± 7.2 % of control	59.4 ± 4.5 % of control	55.9 ± 5.3 % of control	54.2 ± 2.4 % of control	33.5 ± 12.1 % of control	18.9 ± 7.1 % of control	18.7 ± 7.1 % of control	18.0 ± 7.3 % of control	47.2 ± 5.8 % of control	34.3 ± 2.0 % of control	37.5 ± 1.4 % of control	42.3 ± 5.2 % of control	–	–	melting point: 162.4 °C
